Experimental data taken from PMC11118832 (Biomolecules, 2024).
Ends that are not written are not given here.

molecular target: T1, PD-1/PD-L1 (Homo sapiens, UniProt Q15116); experiment: In vitro time-resolved FRET PD-1/PD-L1 binding assay (CisBio kit); details: CisBio PD-1/PD-L1 binding kit, TR FRET, 96-well, 4-fold serial dilutions in triplicate, freshly dissolved peptides; read-out: IC50, inhibition of PD-1/PD-L1 binding (TR FRET assay)
T1 construct: this kit uses ectodomains of PD-1 and PD-L1 that are expressed with orthogonal fusion tags (Tag-1 and Tag-2); purchased CisBio (currently Perkin-Elmer, Bedford, MA)
Outline: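 Tagged PD-1 and PD-L1 ectodomains were detected with donor- and acceptor-labeled anti-tag antibodies; complex formation gives a time-resolved FRET signal. Freshly dissolved peptides were tested in triplicate 4-fold serial dilutions, with no-peptide and no-protein wells as controls. IC50 is the concentration reducing TR-FRET by 50%.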

Q: With Ac-LVIVGAAWDYKY-NH2 [B2.22] as the substance, how does the IC50 read?
A: 0.7 µM

same assay, conditions: CisBio PD-1/PD-L1 binding kit, TR FRET, 96-well, serial dilutions in triplicate; NI = no inhibition at maximum concentration tested (* 5 μM, ** 50 μM); read-out: EC50 (Supplementary Table S1; inhibition of PD-1/PD-L1 binding by in vitro TR-FRET assay)

Q: With Ac-DVLDGAAWDYKY-NH2 [B8.13] as the substance, how does the EC50 read?
A: > 5 µM

Q: For Ac-DVVDGAAWDYKY-NH2 [B8.3], which EC50 is on record?
A: > 5 µM

Q: Which EC50 does the source give for Ac-DVWVGAAWDYKY-NH2 [B5.2] here?
A: > 5 µM

Q: For Ac-DWIVGAAWDYKY-NH2 [B5.13], which EC50 is on record?
A: > 5 µM

Q: For Ac-EAAWDYKY-NH2 [B9.7], which EC50 is on record?
A: > 50 µM

Q: With Ac-EAWDYKY-NH2 [B9.4] as the substance, how does the EC50 read?
A: > 5 µM

Q: Which EC50 does the source give for Ac-EGAAWDYKY-NH2 [B9.6] here?
A: > 50 µM

Q: With Ac-EVIDGAAWDYKY-NH2 [B8.17] as the substance, how does the EC50 read?
A: > 5 µM

Q: With Ac-EVIVGAAWDYKY-NH2 [B5.12] as the substance, how does the EC50 read?
A: > 5 µM

Q: With “Ac-GADYKRITVKVN-NH2 [PL-120, reference compound]” as the substance, how does the EC50 read?
A: 35 µM

Q: Which EC50 does the source give for Ac-IVGAAWDYKY-NH2 [B3.1] here?
A: > 50 µM

Q: For Ac-LEIKGAEWDYKY-NH2 [B3.18], which EC50 is on record?
A: > 50 µM

Q: For Ac-LVDVGAAWDYKY-NH2 [B3.16], which EC50 is on record?
A: > 50 µM

Q: For Ac-LVIVGAAWDRKY-NH2 [B3.17], which EC50 is on record?
A: > 50 µM

Q: Which EC50 does the source give for Ac-LVIVGAAWDYK-NH2 [B3.14] here?
A: > 5 µM

Q: Which EC50 does the source give for Ac-LVIVGAAWDYKR-NH2 [B3.4] here?
A: 21 µM

Q: For Ac-LVIVGAAWDYKY-NH2 [B2.22], which EC50 is on record?
A: 0.7 µM

Q: For Ac-LVIVGARWDYKR-NH2 [B3.7], which EC50 is on record?
A: 26 µM

Q: For Ac-LVIVGPAWDYKY-NH2 [B3.9], which EC50 is on record?
A: 8.5 µM

Q: For Ac-LVWVGAAWDRKY-NH2 [B3.19], which EC50 is on record?
A: 5 µM

Q: For Ac-LVWVGAAWDYKY-NH2 [B3.2], which EC50 is on record?
A: > 50 µM

Q: Which EC50 does the source give for Ac-NVIDGAAWDYKY-NH2 [B8.5] here?
A: > 5 µM

Q: For Ac-NVIVGAAWDYKY-NH2 [B7.7], which EC50 is on record?
A: > 5 µM

Q: With Ac-RSMISYGGADDYK-NH2 [B1.1] as the substance, how does the EC50 read?
A: 24 µM

Q: For Ac-RVFVFVGAAWDYKY-NH2 [B2.21], which EC50 is on record?
A: 12.7 µM

Q: For Ac-RVKVIVGAAWDYKY-NH2 [B2.11], which EC50 is on record?
A: 55 µM

Q: For Ac-RVLVIVGAALDYKY-NH2 [B2.30], which EC50 is on record?
A: 35 µM

Q: Which EC50 does the source give for Ac-RVLVIVGAAWDYKR-NH2 [B2.7] here?
A: 55 µM

Q: Which EC50 does the source give for Ac-RVLVIVGAAWDYKY-NH2 [B2.1] here?
A: 30 µM

Q: With Ac-RVLVWVGAAWDYKY-NH2 [B2.18] as the substance, how does the EC50 read?
A: 1 µM

Q: For Ac-RVWVIVGAAWDYKY-NH2 [B2.12], which EC50 is on record?
A: 20 µM

Q: For Ac-WVWVGAAWDYKY-NH2 [B3.8], which EC50 is on record?
A: > 50 µM

Q: With Ac-YVLVIVGAAWDKKY-NH2 [B2.26] as the substance, how does the EC50 read?
A: 22 µM

Q: Which EC50 does the source give for DVIVGAAWDYKY [B5.14] here?
A: > 5 µM

Q: For IVGAAWDYKY [B3.12], which EC50 is on record?
A: > 50 µM

Q: For KRVLVIVGAAWDYKYE [B2.35], which EC50 is on record?
A: 10 µM

Q: With LVIVGAAWDYKY [B3.11] as the substance, how does the EC50 read?
A: 14 µM

Q: For RVLVIVGAAWDYKY [B2.28], which EC50 is on record?
A: 11 µM

system: not given; experiment: not given; details: pH 6.4

Q: Which “Solubility / precipitation in NMR buffer” value does the source give for Ac-LVIVGAAWDYKY-NH2 [B2.22] here?
A: too hydrophobic and precipitated totally out of the solution
